Source: patent US9566311B2, “Pharmaceutical composition” (Ferring B.V., priority 2010, dated 2017)
Numbered stars: 1 amine (or outer) side, 2 acyl side, 3 side chain; on linkers, the order of the positions; unused ones are H or OH. Bridge positions count the residues as written; N and C are the ends. Peptide text beside a SMILES is read from it. X1 = O=C(CCC[*:2])[*:1]

Assays:
[1] = in vivo, cited from earlier work
[2] = Stability of FE 202767 in citrate and citrate-phosphate buffers at 40° C., intact peptide by HPLC; assay type: physicochemical
Procedure: FE 202767 (Ferring) was synthesised by the method set out in WO2009/122285. FE 202767 was dissolved at a concentration of 0.2 mg/ml in either 25 mM citrate buffer (isotonic to saline) or 25 mM citrate-phosphate buffer (isotonic with saline) at varying pH (pH 5.0, 5.5, 6.0), by methods known in the art. The solutions were incubated at 40° C. for 176 days, with samples taken at day 0, 15, 30, 84, and 176.
Samples were evaluated by HPLC to determine the amount of intact peptide remaining at the various time points, by methods well known in the art, comparing the % Area. of the intact peptide peak on the sampling day vs. % Area on Day 0.
The HPLC method used an Agilent 1200 instrument. […] The Phenomenex MAX-RP C18, 2.0×150 mm, 4 μm, 80 Å column was at temperature 40 with UV detection at 210 nm. The injection volume was 10 μL.

[3] = Stability of FE 202767 in various buffers at 40° C./75% RH for one and three months, HPLC; assay type: physicochemical
Procedure: The method was similar to Example 7. FE 202767 (Ferring) was synthesised by the method set out in WO2009/122285. The FE 202767 was dissolved at a concentration of 0.2 mg/ml in either 25 mM citrate buffer (citric acid/Na citrate), 10 mM acetate buffer (acetic acetate/Na acetate) or 10 mM succinate buffer (1 mM succinic acid+NaOH to relevant pH) at varying pH (pH 5.0, 5.2, 5.5, 5.65, 5.8, 6.0), by methods known in the art. As set out in the table below, the various samples also included isotonicity agent (NaCl, 7 mg/mL or mannitol 47 mg/mL) to achieve isotonicity. Some of the samples included […] (methionine 1 mg/mL, EDTA 1 mg/mL, or combination of EDTA 1 mg/mL and methionine 1 mg/mL). Each formulation (see Table below) was filled in a 10R glass vial sealed with a rubber stopper and an aluminium cap.
The solutions were incubated at 40° C. at 75% RH, with samples taken at day 30 (1 month), and day 90 (3 months).
Samples were evaluated by HPLC to determine the amount of intact peptide remaining at the various time points, by methods well known in the art, comparing the % Area of the intact peptide peak on the sampling day vs. % Area on Day 0.
The HPLC method used an Agilent 1100 instrument. The mobile phases where HPLC Buffers A (A=0.1% TFA in water) and B (B=0.1% TFA in acetonitrile) with the gradient 20 to 30% B in 40 min, then 30 to 60% B in 15 min, then 60 to 20% B in 1 min and then 20% B for 10 min at flow rate 0.5 mL/min. The Zorbax 300SB C16, 3.0×150 mm, 3.5 μm, 300 Å column was at temperature 25 with UV detection at 214 nm. The injection volume was 15 μL

**Q.** With `CC[C@H](C)[C@@H]1NC(=O)[C@H](Cc2ccc(OC)cc2)NC(=O)CCCSC[C@@H](C(=O)N2CCC[C@H]2C(=O)N[C@@H](CC(C)C)C(=O)NCC(N)=O)NC(=O)[C@H](CC(N)=O)NC(=O)[C@H](CCC(N)=O)NC1=O` [carbetocin, (1-desamino-1-monocarba-2(O-methyl)-tyrosine)oxytocin] (Y(Me)IQNCPLG-NH2; linker N-5 via X1) as the compound, how does the bioavailability ([1]; human, im) read?
**A.** The bioavailability was 80%.

**Q.** What about the half-life ([1]; human, iv) of the same compound?
**A.** The half-life was “approximately 40 minutes”.

**Q.** And the “half-life relative to the reported half-life of oxytocin” value ([1]; iv)?
**A.** The value was 4 to 10 times longer.

**Q.** And the “time to peak plasma concentrations” value [1]?
**A.** The value was “less than thirty minutes”.

**Q.** For `CC[C@H](C)[C@@H]1NC(=O)[C@H](Cc2ccc(O)cc2)NC(=O)[C@@H](N)CSSC[C@@H](C(=O)N2CCC[C@H]2C(=O)N[C@@H](CC(C)C)C(=O)NCC(N)=O)NC(=O)[C@H](CC(N)=O)NC(=O)[C@H](CCC(N)=O)NC1=O` [oxytocin], which reported half-life [1] is on record?
**A.** Its reported half-life is 4 to 10 min.

**Q.** With carba-1-[4-FBzIGly^7]dOT [FE 202767] as the compound, how does the intact peptide remaining ([2]; after 176 days at 40° C. in citrate buffer at pH 5.0 and 5.5) read?
**A.** Its intact peptide remaining is greater than 95%.

**Q.** And the intact peptide remaining ([2]; after 176 days at 40° C. in citrate-phosphate buffers, pH 5.0, 5.5 and 6.0, each condition)?
**A.** The intact peptide remaining was greater than 95%.

**Q.** What about the “degradation (in words)” value ([2]; after 176 days at 40° C. in pH 6.0 citrate buffer) of the same compound?
**A.** The value was “significant degradation”.

**Q.** And the “stability (in words)” value ([3]; citrate and acetate buffers in the pH range tested, after 30 days at 40° C.)?
**A.** The value was “good stability”.

**Q.** What about the “stability (in words)” value ([3]; citrate and acetate buffers in the pH range tested, after 90 days at 40° C.) of the same compound?
**A.** Its value is “good stability”.

**Q.** And the “stability (in words)” value ([3]; succinate buffer at pH 5.0 to 5.65, after 30 days at 40° C.)?
**A.** The value was “very stable”.

**Q.** And the “stability (in words)” value ([3]; succinate buffer at pH 5.0 to 5.65, after 90 days at 40° C.)?
**A.** Its value is “stable”.
